For experiment [1], the system named is human primary osteoclasts. Briefly: Human Primary Osteoclastogenesis (TRAP-positive multinucleated cells from CD14+ monocytes). It counts as cell-based. The following applies: compound added on Day 4 of monocyte differentiation; for IC50: Homo sapiens, Osteoclast, 96 h. On the procedure: In vitro potency of test compounds was determined by incubating them with human primary monocytes and assessing effects on the formation of mature osteoclasts.
The activity of the compounds in reducing the formation of human primary osteoclasts (osteoclastogenesis) was tested using monocytes derived from human whole blood. Monocytes, which are positive for the cell surface marker CD14, are part of the innate immune system found in the circulation. Peripheral blood monocytes differentiate to form several cell types, including osteoclasts. Human primary osteoclasts were […] macrophage colony-stimulating factor (M-CSF) and RANKL+10% foetal calf serum for approximately 6 days, with the exact duration depending on the individual donor of the cells.
When monocytes are cultured under the conditions described above, they form large, multinucleated cells (osteoclasts), which stain positively for tartrate-resistant acid phosphatase (TRAP). TRAP staining was performed between Days 5-6 of culture depending on the individual donor. Osteoclasts are identified as cells which stain positive for TRAP and contain more than 3 nuclei. Compounds which reduce the number of TRAP-positive cells reduce the formation of osteoclasts. The bisphosphonate compound, alendronate, which is used in the treatment of osteoporosis, is used as a positive control for reducing osteoclastogenesis in this assay.
Effects on osteoclast formation were assessed by staining for TRAP and counting cells containing more than three nuclei in each well under a microscope. This allows the absolute determination of cell number in each treated well.
PBMCs (peripheral blood mononuclear cells) were collected from healthy donors and isolated by centrifugation on a layer of Ficoll Paque (GE Healthcare, UK). Monocytes were then sorted from the PBMCs using an autoMACS Pro Separator (MiltenyiBiotec), which sorts cells depending on the markers present on their cell surface. The resulting CD14+ monocytes were resuspended in αMEM supplemented with 10% FCS, 25 ng/mL M-CSF and 100 ng/ml RANKL and added to a 48-well plate, which was then incubated for up to 6 days at 37° C./5% CO2. […] The medium was replenished every 2 days.
At the end of the culture period, the medium was removed from the cells and the cells were fixed at room temperature and then washed with phosphate-buffered saline. TRAP staining solution was then added and the cells incubated at 37° C. until a red colour had developed, after which the reaction was stopped by rinsing with water. The stained cells were air-dried and then photographed using a conventional microscope and the TRAP-positive multinucleated osteoclasts counted by two independent observers.
The average results (n=6) for each concentration of test compound were averaged between the two observers and then expressed as a fold change versus the average control value. The data were then plotted graphically using software from Grafit (Erithacus Software).

Experiment [2] has as its system DoHH2 B-cell lymphoma cells. Kind of experiment: DoHH2 B Cell Lymphoma Proliferation Assay. It is filed as cell-based. The following applies: Homo sapiens, DOHH-2; 72 hour incubation, flow cytometry with counting beads and eFluor 450. On the procedure:
In vitro potency of test compounds was determined by incubation with DoHH2 B-cell lymphoma cells and subsequent determination of cell number using flow cytometry.
Flow cytometry is a laser-based, biophysical technology employed in cell counting, cell sorting, and biomarker detection, by suspending cells in a stream of fluid and passing them by an electronic detection apparatus. It allows simultaneous multi-parametric analysis of the physical and chemical characteristics of up to thousands of particles per second. To quantify cell numbers, counting beads are used as an internal standard. Counting beads are a calibrated suspension of microbeads which are added to a known volume of sample so the sample volume per bead is known. This allows the absolute determination of cell number in a sample. Cell proliferation is measured using a dye known as Cell Proliferation Dye (eFluor® 450). eFluor® 450 is an organic dye which can be conjugated to cell-specific markers. […]
The average results for each test compound were expressed as a percent (%) of the average control value reflecting cell viability. The average values across the concentrations tested were then plotted and an IC50 was calculated by fitting the data to a 4-parameter IC50 equation using KaleidaGraph software (Synergy Software, Reading, Pa. USA).

Experiment [3] relates to mice with collagen-induced arthritis. Kind of experiment: Mouse Collagen-Induced Arthritis. It counts as in vivo. The following applies: for % inhibition of disease: oral gavage once daily for 14 days, arthritic index vs control. The procedure:
Seven- to eight-week-old male DBA/1j mice were used for all procedures. Animals were housed in groups of 10, and were maintained at 21° C.±2° C. on a 12-hour light/dark cycle with food and water ad libitum. Complete Freund's adjuvant (CFA) was prepared by emulsifying bovine type II collagen at 4 mg/mL with a 4 mg/mL suspension of Mycobacterium tuberculosis H37Ra in Incomplete Freund's adjuvant (IFA) (0.85 mL paraffin oil and 0.15 mL mannide monooleate) in a 1:1 (v/v) ratio. All mice were immunised subcutaneously with 200 μg of bovine type II collagen in CFA. 21 days later, all mice were immunised subcutaneously with 100 μg of bovine type II collagen in IFA. The mice started to develop signs and symptoms of arthritis following the ‘booster’ immunisation.
For macroscopic assessment of arthritis, the following signs were monitored in each paw of each mouse three times per week and summed to generate the Arthritic Index (AI) (the maximum AI for one animal is 16): • 0=no visible effects of arthritis. • 1=oedema and/or erythema of 1 digit. • 2=oedema and/or erythema of 2 digits. • 3=oedema and/or erythema of more than 2 digits. • 4=severe arthritis of entire paw and digits.
Animals were sorted into treatment groups with a mean arthritic index of 2.5 and then dosed once daily for 14 days with compound by oral gavage for test compounds, or by subcutaneous injection at a dose of 10 mg/kg for the positive control, etanercept. After completion of the experiment, the mice were sacrificed.
The data were analysed by generating an average of the arthritic index across each treatment group. The mean arthritic index was then compared to the arthritic index of control (untreated) animals using the following formula to generate a percentage inhibition of disease.

Structures are written as SMILES.

As usually defined, the IC50 is the concentration needed to halve the response being measured.

For the molecule `C[C@]1(O)CC[C@H](NS(=O)(=O)c2ccc(-c3ccc(F)cc3F)cc2)CC1` [ABD900], in experiment [1], the “% reduction at 1 μM” value was 90% and the concentration for half-maximal inhibition (IC50) amounted to 0.37 µM.

As for `C[C@]1(O)CC[C@@H](NS(=O)(=O)c2ccc(-c3ccc(F)cc3F)cc2)CC1` [ABD899, reference compound], the IC50 in experiment [2] stood at 0.135 µM. The “% inhibition of disease” value in experiment [3] (10 mg/kg/day) came out at 77%.

On to `C[C@]1(O)CC[C@@H](NS(=O)(=O)c2ccc(-c3ccc(C#N)cc3)c(F)c2)CC1` [HMC-C-07-B, 4′-Cyano-2-fluoro-N-((1s,4s)-4-hydroxy-4-methylcyclohexyl)-[1,1′-biphenyl]-4-sulfonamide], for which the 50% inhibitory concentration (IC50) in experiment [2] is 0.186 µM; in experiment [1], 0.12 µM. Also, the “% reduction at 1 μM” value in experiment [1] is reported as 90%. Further, the figures for the “% inhibition of disease” value in experiment [3] (0.3 mg/kg/day) and in experiment [3] (3 mg/kg/day) were 16% and 56%, respectively. Moreover, the “signs and symptoms of disease (in words)” value in experiment [3] (compared with Etanercept (10 mg/kg s.c.), FIG. 1 and 2) is “able to reduce signs and symptoms of disease in mice with collagen-induced arthritis to a similar extent as the clinically utilised treatment, Etanercept”.

In the case of `Cc1cc(S(=O)(=O)N[C@H]2CC[C@H](O)CC2)ccc1-c1ccc(F)cc1F` [ABD735, reference compound], the “% inhibition of disease” value in experiment [3] (10 mg/kg/day) came out at 44%.

The values are drawn from patent US10005733B2, “N-(4-hydroxy-4-methyl-cyclohexyl)-4-phenyl-benzenesulfonamide and N-(4-hydroxy-4-methyl-cyclohexyl)-4-(2-pyridyl)-benzenesulfonamide compounds and their therapeutic use” (PIMCO 2664 LIMITED, priority 2014, dated 2018).
